Experimental data from the NIST ThermoML archive (doi:10.1016/j.jct.2004.06.009).
± gives the expanded uncertainty stated by the source.

Assay: Molar enthalpy of transition or fusion

CCC12CC3CC(CC(C3)C1)C2 [1-ethyladamantane]
Molar enthalpy of transition or fusion (Crystal): 2.696 ± 0.012 kcal/mol

CC12CC3CC(C1)CC(C)(C3)C2 [1,3-dimethyladamantane]
Molar enthalpy of transition or fusion (Crystal 1): 0.368 ± 0.0098 kcal/mol
Molar enthalpy of transition or fusion (Crystal 2): 2.225 ± 0.00717 kcal/mol
